Measurements as given in US20090105292A9, “Glucocorticoid Receptor Modulator Compounds and Methods” (LIGAND PHARMACEUTICALS INCORPORATED, priority 2004, published 2009).

Target: T1, human glucocorticoid receptor protein (GR) (Homo sapiens, UniProt P04150)
T1 construct: made in house; host or cells: Spodoptera frugiperda Sf21 insect cells (baculovirus)
T1 sequence (P04150 1-777): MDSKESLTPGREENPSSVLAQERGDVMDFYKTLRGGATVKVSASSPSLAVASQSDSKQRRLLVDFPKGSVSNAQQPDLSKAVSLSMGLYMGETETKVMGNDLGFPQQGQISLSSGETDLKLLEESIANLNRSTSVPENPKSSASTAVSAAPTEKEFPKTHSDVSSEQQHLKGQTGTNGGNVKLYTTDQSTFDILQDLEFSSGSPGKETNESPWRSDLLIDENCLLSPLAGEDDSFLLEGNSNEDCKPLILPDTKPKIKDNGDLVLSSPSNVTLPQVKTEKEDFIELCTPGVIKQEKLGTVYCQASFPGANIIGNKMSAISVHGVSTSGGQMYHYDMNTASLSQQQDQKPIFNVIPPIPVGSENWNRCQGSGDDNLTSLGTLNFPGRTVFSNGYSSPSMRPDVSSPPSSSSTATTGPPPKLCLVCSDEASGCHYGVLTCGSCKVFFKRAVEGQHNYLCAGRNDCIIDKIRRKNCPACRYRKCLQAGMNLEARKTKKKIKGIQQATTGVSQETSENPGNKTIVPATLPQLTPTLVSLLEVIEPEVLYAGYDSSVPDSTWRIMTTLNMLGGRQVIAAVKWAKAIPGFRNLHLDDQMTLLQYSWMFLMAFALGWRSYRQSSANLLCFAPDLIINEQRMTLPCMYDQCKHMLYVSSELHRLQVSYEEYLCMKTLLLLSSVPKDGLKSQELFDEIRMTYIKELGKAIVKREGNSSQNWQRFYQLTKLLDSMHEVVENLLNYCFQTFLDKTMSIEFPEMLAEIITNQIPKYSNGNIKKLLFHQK
Experiment: Glucocorticoid receptor binding assay ([3H]dexamethasone competition, GR lysate)
Settings: not given
Experimental: A baculovirus expression plasmid containing cDNA encoding the human glucocorticoid receptor protein (GR) was prepared using standard techniques. […] That expression plasmid was co-transfected together with wild type Autographa californica multiple nuclear polyhedrosis virus DNA into Spodopter frugiperda-21 (Sf-21) cells to generate recombinant virus containing GR cDNA. See e.g., O'Reilly, D. R., Miller, L. K., Luckow, V. A., Regulation of expression of a baculovirus ecdysteroid UDP glucosyltransferase gene. […] That recombinant virus containing GR cDNA was collected.
A suspension culture of uninfected Sf21 cells was grown to a density of 1.2×10^6 cells/ml and then infected with the recombinant virus containing GR cDNA at a multiplicity of infection of 2. Those infected Sf21 cells were incubated for 48 hours and then collected by centrifugation at 1000×g for 10 minutes at 4° C. The resulting cell pellets were resuspended in lysis buffer (50 mM Potassium Phosphate buffer, pH 7.0, 10 mM Monothioglycerol, 5 mM DTT, 20 mM Sodium Molybdate, 1 mM PMSF, 1 μg/mL aprotinin, and 10 μg/mL leupeptin) and incubated for 15 minutes on ice. Those resuspended cell pellets were homogenized using a Dounce homogenizer and a B pestle. A volume of 2 M KCl was added to the homogenized cell pellets to a final concentration of 0.4 M. The resulting GR lysates were centrifuged at 100,000×g for 60 min at 4° C. and stored for use in binding assays.
Binding assay samples were prepared in separate mini-tubes in a 96-well format at 4° C. Each binding assay sample was prepared in a volume of 250 μL of Assay Buffer (10% glycerol, 25 mM sodium phosphate, 10 mM potassium fluoride, 10 mM sodium molybdate, 0.25 mM CHAPS, 2 mM DTT and 1 mM EDTA, (adjusted to pH 7.5)) containing 50 μg of GR lysate; 2-4 nM of [^3H]dexamethasone at 84 Ci/mmol; and either a reference compound or a test compound. […] Each reference compound and test compound was assayed at varying concentrations, ranging from 0 to 10^−5 M. Each concentration of each reference compound and each test compound was assayed in triplicate. The assay samples were incubated for 16 hours at 4° C.
The assay samples were then centrifuged and the supernatants were discarded. The resulting pellets were washed twice with assay buffer lacking DTT. Radioactivity in counts per minute (CPM) of each washed pellet was determined by liquid scintillation counter (MicroBeta™, Wallach).
Specific binding for a particular sample was calculated using the equation: (Sample CPM)−(Average Non-specific CPM)
Average Non-specific CPM was defined as the amount of radioactivity from samples containing an excess (i.e. 1000 nM) of unlabeled dexamethasone. […] Ki values were determined using the Cheng-Prusoff equation using a previously determined Kd value for dexamethasone: Ki=IC50/(1+[L]/Kd)
[L]=concentration of labeled dexamethasone
Kd=dissociation constant of labeled dexamethasone
`COc1c(O)ccc2c1-c1ccc3c(c1/C(=C/c1ccccc1F)O2)C(C)=CC(C)(C)N3` [Compound 12, (Z)-5-(2′-fluorobenzylidene)-1,2-dihydro-9-hydroxy-10-methoxy-2,2,4-trimethyl-5H-chromeno[3,4-f]quinoline] gave a Ki of under 1 nM.
With `COc1c(O)ccc2c1-c1ccc3c(c1/C(=C/c1oc(C)cc1C(=O)N(C)C)O2)C(C)=CC(C)(C)N3` [Compound 146, (Z)-5-(2′-(3′-dimethylaminocarbonyl-5H-methylfuranylmethylidene))-1,2-dihydro-9-hydroxy-10-methoxy-2,2,4-trimethyl-5H-chromeno[3,4-f]quinoline] the Ki was over 3 nM.
`COc1c(O)ccc2c1-c1ccc3c(c1/C(=C/c1cccc(OC(F)(F)F)c1)O2)C(C)=CC(C)(C)N3` [Compound 22, (Z)-5-(3′-trifluoromethoxybenzylidene)-1,2-dihydro-9-hydroxy-10-methoxy-2,2,4-trimethyl-5H-chromeno[3,4-f]quinoline] showed a Ki of over 3 nM.

Same assay, conditions: competition with 2-4 nM [3H]dexamethasone, 16 hours at 4° C., Cheng-Prusoff; read-out: Ki
`COc1c(O)ccc2c1-c1ccc3c(c1/C(=C/c1cccc(C(F)(F)F)c1F)O2)C(C)=CC(C)(C)N3` [Compound 29, (Z)-5-(2′-fluoro-3′-trifluoromethylbenzylidene)-1,2-dihydro-9-hydroxy-10-methoxy-2,2,4-trimethyl-5H-chromeno[3,4-f]quinoline] showed a Ki of 2 to 3 nM.
In the case of `CCN(C)C(=O)c1ccsc1/C=C1\Oc2ccc(O)c(OC)c2-c2ccc3c(c21)C(C)=CC(C)(C)N3` [Compound 134, (Z)-5-(2′-(3′-(ethylmethylaminocarbonyl)thienylmethylidene))-1,2-dihydro-9-hydroxy-10-methoxy-2,2,4-trimethyl-5H-chromeno[3,4-f]quinoline], the Ki is reported as under 1 nM.
Work on `C=Cc1ccc(/C=C2\Oc3ccc(O)c(OC)c3-c3ccc4c(c32)C(C)=CC(C)(C)N4)cc1` [Compound 63, (Z)-5-(4′-vinylbenzylidene)-1,2-dihydro-9-hydroxy-10-methoxy-2,2,4-trimethyl-5H-chromeno[3,4-f]quinoline] yielded a Ki of 1 to 2 nM.
`COc1c(O)ccc2c1-c1ccc3c(c1/C(=C/c1sccc1C(C)O)O2)C(C)=CC(C)(C)N3` (racemic) [Compound 171, (±)-(Z)-5-(2′-(3′-(1″-Hydroxyethyl)thienylmethylidene))1,2-dihydro-9-hydroxy-10-methoxy-2,2,4-trimethyl-5H-chromeno[3,4-f]quinoline] gave a Ki of 1 to 2 nM.
Compound `COc1c(O)ccc2c1-c1ccc3c(c1/C(=C/c1ccccc1C(=O)N1CCCC1)O2)C(C)=CC(C)(C)N3` [Compound 90, (Z)-5-(2′-(pyrrolidinecarbonyl)benzylidene)-1,2-dihydro-9-hydroxy-10-methoxy-2,2,4-trimethyl-5H-chromeno[3,4-f]quinoline] has a Ki of under 1 nM.
For `COc1c(O)ccc2c1-c1ccc3c(c1/C(=C/c1ccccc1CO)O2)C(C)=CC(C)(C)N3` [Compound 159, (Z)-5-(2′-Hydroxymethylbenzylidene)1,2-dihydro-9-hydroxy-10-methoxy-2,2,4-trimethyl-5H-chromeno[3,4-f]quinoline], the Ki was 1 to 2 nM.
`COc1c(O)ccc2c1-c1ccc3c(c1/C(=C/c1sccc1CN(C)C)O2)C(C)=CC(C)(C)N3` [Compound 166, (Z)-5-(2′-(3′-(Dimethylaminomethyl)thienylmethylidene))1,2-dihydro-9-hydroxy-10-methoxy-2,2,4-trimethyl-5H-chromeno[3,4-f]quinoline] showed a Ki of 2 to 3 nM.
`COc1c(O)ccc2c1-c1ccc3c(c1/C(=C/c1ccc4c(c1)OCO4)O2)C(C)=CC(C)(C)N3` [Compound 67, (Z)-5-(3′,4′-methylenedioxybenzylidene)-1,2-dihydro-9-hydroxy-10-methoxy-2,2,4-trimethyl-5H-chromeno[3,4-f]quinoline] gave a Ki of under 1 nM.
`CCN(CC)C(=O)c1ccccc1/C=C1\Oc2ccc(O)c(OC)c2-c2ccc3c(c21)C(C)=CC(C)(C)N3` [Compound 75, (Z)-5-(2′-diethylaminocarbonylbenzylidene)-1,2-dihydro-9-hydroxy-10-methoxy-2,2,4-trimethyl-5H-chromeno[3,4-f]quinoline] showed a Ki of under 1 nM.
Work on `COc1c(O)ccc2c1-c1ccc3c(c1/C(=C/c1oc(C)cc1C(=O)N1CCCCC1)O2)C(C)=CC(C)(C)N3` [Compound 151, (Z)-5-(2′-(5′-Methyl-3′-(piperidinecarbonyl)furanylmethylidene))1,2-dihydro-9-hydroxy-10-methoxy-2,2,4-trimethyl-5H-chromeno[3,4-f]quinoline] yielded a Ki of 1 to 2 nM.
`COCCN(CCOC)C(=O)c1ccsc1/C=C1\Oc2ccc(O)c(OC)c2-c2ccc3c(c21)C(C)=CC(C)(C)N3` [Compound 138, (Z)-5-(2′-(3′-(di(methoxyethyl)aminocarbonyl)thienylmethylidene))-1,2-dihydro-9-hydroxy-10-methoxy-2,2,4-trimethyl-5H-chromeno[3,4-f]quinoline] gave a Ki of 1 to 2 nM.
Compound `COc1c(O)ccc2c1-c1ccc3c(c1/C(=C/c1ccc(C(=O)N4CCCC4)s1)O2)C(C)=CC(C)(C)N3` [Compound 143, (Z)-5-(2′-(5′-(pyrrolidinocarbonyl)thienylmethylidene))-1,2-dihydro-9-hydroxy-10-methoxy-2,2,4-trimethyl-5H-chromeno[3,4-f]quinoline] has a Ki of 1 to 2 nM.
With `COCc1ccsc1/C=C1\Oc2ccc(O)c(OC)c2-c2ccc3c(c21)C(C)=CC(C)(C)N3` [Compound 193, (Z)-5-(2′-(3′-Methoxymethylthienylmethylidene))1,2-dihydro-9-hydroxy-10-methoxy-2,2,4-trimethyl-5H-chromeno[3,4-f]quinoline] the Ki was 1 to 2 nM.
Work on `COc1c(O)ccc2c1-c1ccc3c(c1/C(=C/c1ccc(F)cc1S(=O)(=O)N(C)C)O2)C(C)=CC(C)(C)N3` [Compound 103, (Z)-5-(2′-dimethylaminosulphonyl-4′-fluorobenzylidene)-1,2-dihydro-9-hydroxy-10-methoxy-2,2,4-trimethyl-5H-chromeno[3,4-f]quinoline] yielded a Ki of 1 to 2 nM.

Test system: not given
Experiment: not given
Settings: not given
Work on `COc1c(O)ccc2c1-c1ccc3c(c1/C(=C/c1sccc1C(C)=O)O2)C(C)=CC(C)(C)N3` yielded a melting point of 222 to 224 °C.
